Here are results for three compounds from ChEMBL document CHEMBL5236559 (J Med Chem, 2021).

Where only a bound is given, the exact number is not on record here.

The first assay concerns SMMC-7721. The experiment in a line: Cytotoxicity against human SMMC-7721 cells assessed as reduction in cell viability incubated for 48 hrs by MTT assay. In kind it is functional, cell-based. The note with it: SMMC-7721, 48 h.
With `NCCCCCC(=O)Nc1ccc([As]2SCCCS2)cc1`, the IC50 – broadly, the concentration that gives 50% inhibition – was over 10 µM.

Turning to `NCCCCCC(=O)Nc1ccccc1[As]1SCCCS1`, the IC50 was over 10 µM.

Take `NCCCCCC(=O)Nc1cccc([As]2SCCCS2)c1`: the IC50 is over 10 µM.

The test system of the next assay is HepG2. Kind of assay: Cytotoxicity against human HepG2 cells assessed as reduction in cell viability incubated for 48 hrs by MTT assay. Format: functional, cell-based. The note with it: HepG2, 48 h. Background: Formazan colour is commonly taken as a measure of viable cells.
On to `NCCCCCC(=O)Nc1ccc([As]2SCCCS2)cc1`, for which the IC50 amounted to 5.36 µM.

For `NCCCCCC(=O)Nc1ccccc1[As]1SCCCS1`, the IC50 worked out at 8.47 µM.

Turning to `NCCCCCC(=O)Nc1cccc([As]2SCCCS2)c1`, the IC50 came out at 5.48 µM.

Another assay relates to HL-60. The experiment in a line: Cytotoxicity against human HL-60 cells assessed as reduction in cell viability incubated for 48 hrs by MTT assay. In kind it is functional, cell-based. The note with it: HL-60, 48 h.
As for `NCCCCCC(=O)Nc1ccc([As]2SCCCS2)cc1`, the IC50 is 1.25 µM.

Consider `NCCCCCC(=O)Nc1ccccc1[As]1SCCCS1`, for which the 50% inhibitory concentration (IC50) was 1.64 µM.

`NCCCCCC(=O)Nc1cccc([As]2SCCCS2)c1`: the IC50 is 1.51 µM.

The next assay concerns HeLa. The experiment in a line: Cytotoxicity against human HeLa cells assessed as reduction in cell viability incubated for 48 hrs by MTT assay. In kind it is functional, cell-based.
Conditions: not given
`NCCCCCC(=O)Nc1ccc([As]2SCCCS2)cc1`: the IC50 is over 10 µM.

Consider `NCCCCCC(=O)Nc1ccccc1[As]1SCCCS1`, for which the half-inhibitory concentration (IC50) is over 10 µM.

On to `NCCCCCC(=O)Nc1cccc([As]2SCCCS2)c1`, for which the IC50 was over 10 µM.
